Laboratory results reported in patent US9771334B2, “Triketone compound and preparation method and use thereof” (SHANDONG CYNDA CHEMICAL CO., LTD., priority 2013, dated 2017).

Legend:
Assay type in all cases: in vivo
amaranthus retroflexus = experiment: Herbicidal activity, pot culture method (primary and secondary screening test); conditions: sprayed at 3-leaf stage; for inhibition ratio, Amaranthus retroflexus: investigated 15 days later; for herbicidal activity inhibition ratio (%), Amaranthus retroflexus: primary screening, pot culture, 150 g/ha, result 15 days later
In short: (§1)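 Post-emergence pot test: 3-leaf-stage weeds, tower spray of 0.2 g/L solution (DMF stock, water dilution) at 150 g/ha, greenhouse, inhibition (%) scored at 15 days. Secondary screen at a reduced dose.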

echinochloa crusgalli = experiment: as above; conditions: sprayed at 3-leaf stage; for inhibition ratio, Echinochloa crusgalli: investigated 15 days later; for herbicidal activity inhibition ratio (%), Echinochloa crusgalli: primary screening, pot culture, 150 g/ha, result 15 days later
In short: as §1

setaria viridis = experiment: as above; conditions: sprayed at 3-leaf stage; for inhibition ratio, Setaria viridis: investigated 15 days later; for herbicidal activity inhibition ratio (%), Setaria viridis: primary screening, pot culture, 150 g/ha, result 15 days later
In short: as §1

abutilon theophrasti = experiment: as above; conditions: sprayed at 3-leaf stage; for inhibition ratio, Abutilon theophrasti: investigated 15 days later; for herbicidal activity inhibition ratio (%), Abutilon theophrasti: primary screening, pot culture, 150 g/ha, result 15 days later
In short: as §1

digitaria sanguinalis = experiment: as above; conditions: sprayed at 3-leaf stage; for inhibition ratio, Digitaria sanguinalis: investigated 15 days later; for herbicidal activity inhibition ratio (%), Digitaria sanguinalis: primary screening, pot culture, 150 g/ha, result 15 days later
In short: as §1

eclipta prostrata = experiment: as above; conditions: sprayed at 3-leaf stage; for inhibition ratio, Eclipta prostrata: investigated 15 days later; for herbicidal activity inhibition ratio (%), Eclipta prostrata: primary screening, pot culture, 150 g/ha, result 15 days later
In short: as §1

wheat = experiment: Crop safety test (pot culture method); conditions: plants with about 4-5 leaves, investigated 15 days later
Excerpt: (§2) This test example is for describing crop safety of the compound with a structure shown in Formula (1). Crop safety test method (pot culture method): The test targets are wheat and maize. Take flowerpots with an inner diameter of 12 cm, put composite soil (vegetable garden soil:seedling matrix=1:2, v/v) into them till ¾ of flowerpot height, directly sow the crop seeds (budding rate>85%), cover them with 0.2 cm thick soil, and keep the plants for future use when they grow to have about 4-5 leaves. Each compound is dissolved in N,N-dimethylformamide at doses of 75 g/ha or 150 g/ha and diluted with distilled water containing 0.1% tween-80 emulsifier to form 0.1 g/L (75 g/ha) solution and 0.2 g/L (150 g/ha) solution respectively. The solutions are sprayed through an automatic spray tower. After the solutions on weed leaves are dried in the air, the flowerpots are moved into a greenhouse for cultivation. The result is investigated 15 days later.

maize = experiment: Crop safety test (pot culture method); conditions: for inhibition ratio, Maize (crop safety): plants with about 4-5 leaves, investigated 15 days later
Excerpt: as §2

Row | Compound | inhibition ratio, Amaranthus retroflexus (amaranthus retroflexus; dose 37.5 g/ha) [%] | inhibition ratio, Amaranthus retroflexus (amaranthus retroflexus; dose 75 g/ha) [%] | herbicidal activity inhibition ratio (%), Amaranthus retroflexus (amaranthus retroflexus) [%] | inhibition ratio, Echinochloa crusgalli (echinochloa crusgalli; dose 37.5 g/ha) [%] | inhibition ratio, Echinochloa crusgalli (echinochloa crusgalli; dose 75 g/ha) [%] | herbicidal activity inhibition ratio (%), Echinochloa crusgalli (echinochloa crusgalli) [%] | inhibition ratio, Setaria viridis (setaria viridis; dose 37.5 g/ha) [%] | inhibition ratio, Setaria viridis (setaria viridis; dose 75 g/ha) [%] | herbicidal activity inhibition ratio (%), Setaria viridis (setaria viridis) [%] | inhibition ratio, Abutilon theophrasti (abutilon theophrasti; dose 37.5 g/ha) [%] | inhibition ratio, Abutilon theophrasti (abutilon theophrasti; dose 75 g/ha) [%] | herbicidal activity inhibition ratio (%), Abutilon theophrasti (abutilon theophrasti) [%] | inhibition ratio, Digitaria sanguinalis (digitaria sanguinalis; dose 37.5 g/ha) [%] | inhibition ratio, Digitaria sanguinalis (digitaria sanguinalis; dose 75 g/ha) [%] | herbicidal activity inhibition ratio (%), Digitaria sanguinalis (digitaria sanguinalis) [%] | inhibition ratio, Eclipta prostrata (eclipta prostrata; dose 37.5 g/ha) [%] | inhibition ratio, Eclipta prostrata (eclipta prostrata; dose 75 g/ha) [%] | herbicidal activity inhibition ratio (%), Eclipta prostrata (eclipta prostrata) [%] | inhibition ratio, Wheat (crop safety) (wheat; dose 75 g/ha) [%] | inhibition ratio, Wheat (crop safety) (wheat; dose 150 g/ha) [%] | other results
1 | Cn1c(=O)n(-c2ccccc2Cl)c(=O)c2cc(C(=O)C3=C(O)CCCC3=O)ccc21 [Compound 5] | 60 | 75 | 80 | 60 | 90 | 80 | 60 | 90 | 100 | 60 | 70 | 85 | 40 | 90 | 100 | 30 | 40 | 80 | 0 | 0 | inhibition ratio, Maize (crop safety) (maize; dose 75 g/ha): 0%; inhibition ratio, Maize (crop safety) (maize; dose 150 g/ha): 15%
2 | Cn1c(=O)n(-c2ccccc2Cl)c(=O)c2cc(C(=O)C3=C(O)CC(C)(C)CC3=O)ccc21 [Compound 6] | 70 | 75 | 80 | 70 | 75 | 80 | 60 | 60 | 90 | 70 | 70 | 100 | 60 | 70 | 75 | 70 | 70 | 85 | 0 | 0 | inhibition ratio, Maize (crop safety) (maize; dose 75 g/ha): 0%; inhibition ratio, Maize (crop safety) (maize; dose 150 g/ha): 15%
3 | Cc1ccccc1-n1c(=O)c2cc(C(=O)C3=C(O)CCCC3=O)ccc2n(C)c1=O [Compound 20] | 50 | 60 | 100 | 50 | 60 | 100 | 50 | 70 | 100 | 30 | 85 | 100 | 40 | 70 | 100 | 50 | 50 | 95 | 0 | 0 | inhibition ratio, Maize (crop safety) (maize; dose 75 g/ha): 0%; inhibition ratio, Maize (crop safety) (maize; dose 150 g/ha): 15%
4 | Cc1ccccc1-n1c(=O)c2cc(C(=O)C3=C(O)CC(C)(C)CC3=O)ccc2n(C)c1=O [Compound 21] | 80 | 90 | 100 | 70 | 75 | 85 | 70 | 75 | 100 | 70 | 100 | 85 | 70 | 75 | 85 | 40 | 50 | 95 | 0 | 0 | inhibition ratio, Maize (crop safety) (maize; dose 75 g/ha): 0%; inhibition ratio, Maize (crop safety) (maize; dose 150 g/ha): 15%
5 | Cn1c(=O)n(-c2cccc(Br)c2)c(=O)c2cc(C(=O)C3=C(O)CCCC3=O)ccc21 [Compound 23] | 100 | 100 | 95 | 20 | 20 | 85 | 30 | 50 | 45 | 100 | 100 | 85 | 20 | 65 | 30 | 100 | 100 | 50 | 0 | 5 | inhibition ratio, Maize (crop safety) (maize; dose 75 g/ha): 0%; safety to maize fields (in words) (maize; dose 150 g/ha): highly safe; inhibition ratio, Maize (crop safety) (maize; dose 150 g/ha): 0%
6 | Cc1cccc(C)c1-n1c(=O)c2cc(C(=O)C3=C(O)CCCC3=O)ccc2n(C)c1=O [Compound 34] | 100 | 100 | 100 | 65 | 80 | 90 | 70 | 78 | 80 | 30 | 50 | 90 | 55 | 75 | 83 | 30 | 50 | 80 | 0 | 5 | inhibition ratio, Maize (crop safety) (maize; dose 75 g/ha): 0%; safety to maize fields (in words) (maize; dose 150 g/ha): highly safe; inhibition ratio, Maize (crop safety) (maize; dose 150 g/ha): 0%
